The assay concerns the target T1, TbNT10 (Trypanosoma brucei, UniProt Q38EK0).
T1 construct: gene Tb09.160.5480; endogenous in procyclic forms and re-expressed (addback clone A) from an EP procyclin locus in the TbNT10 null mutant
The assay is described as follows: 3H-adenosine uptake; wild type, null mutant and addback procyclic cells. Type of assay: cell-based. The note with it: procyclic forms; 5 min; labelled compound; transporter activity judged by null mutant versus addback.

T1 sequence (Q38EK0 entry or part of it): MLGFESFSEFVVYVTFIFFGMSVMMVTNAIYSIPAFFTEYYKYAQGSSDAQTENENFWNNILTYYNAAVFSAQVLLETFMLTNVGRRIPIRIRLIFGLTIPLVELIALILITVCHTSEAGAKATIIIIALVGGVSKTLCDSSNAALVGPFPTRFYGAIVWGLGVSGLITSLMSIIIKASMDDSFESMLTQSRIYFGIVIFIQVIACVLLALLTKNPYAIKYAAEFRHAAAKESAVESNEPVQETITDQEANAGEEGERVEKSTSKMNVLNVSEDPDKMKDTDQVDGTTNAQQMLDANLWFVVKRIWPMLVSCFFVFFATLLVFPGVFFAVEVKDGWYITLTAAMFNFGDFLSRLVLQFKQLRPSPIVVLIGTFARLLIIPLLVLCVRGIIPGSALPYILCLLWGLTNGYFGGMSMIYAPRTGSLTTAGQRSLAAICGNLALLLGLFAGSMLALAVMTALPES

For the compound `Nc1ncnc2c1ncn2[C@@H]1O[C@H](CO)[C@@H](O)[C@H]1O` [adenosine], the “3H-adenosine uptake; wild type, null mutant and addback procyclic cells” value was “it is the main transporter for adenosine in this life cycle stage”.
